Results on six compounds are retold here after patent US20080194407A1, “High nitrogen containing chelate compositions suitable for plant delivery” (priority 2007, published 2008).

Test [1] relates to corn (maze) plants. Kind of test: Greenhouse foliar study in corn: Fe concentration by plasma emission spectrophotometry. Type of test: in vivo. As to conditions: 400 ppm Fe foliar spray twice, harvest three weeks after last spray. The procedure:
(§1) A greenhouse foliar study was conducted in which 12 inch corn (maze) plants were sprayed with a solution that contained 400 ppm Fe as FeSO4, Fe EDTA, or Fe high nitrogen amino acid chelate with and without the addition of urea and ammonium nitrate. The high nitrogen amino acids were lysine, histidine, cysteine, tryptophan, aspartic acid, alanine, and glycine. The urea and ammonium nitrate were formulated as an admixture and not reacted to the Fe sources. […] These same treatments were repeated one week later. Three weeks following the last spray, all of the plants were harvested and the roots separated from the stalks. Each sample was dried for 24 hours at 75° C., then weighed for dry matter, and the Fe concentrations determined by plasma emission spectrophotometry.

The test system of test [2] is corn (maze) plants. Kind of test: Greenhouse foliar study in corn: plant growth as dry matter. Format: in vivo. As to conditions: 400 ppm Fe foliar spray twice. As for the experimental part: as §1, with “spectrophotometry. […] Greater Fe retention also results in greater plant growth as measured by dry matter.” for “spectrophotometry.”
Test [3] concerns oranges. The test is described as follows: Orange orchard foliar zinc study: fruit production and quality. Format: in vivo, orange trees. The conditions noted are these: equivalent zinc. The procedure: A study was conducted in oranges in which the application of zinc nitrate was compared to a zinc mixed ligand amino acid chelate. The mixed ligands included arginine, lysine, histidine, leucine, tryptophan, aspartic acid, alanine, and glycine. Specifically, a 12 year old orchard containing 193 trees per acre was evaluated. The trees were divided into 2 groups. One group was sprayed with a zinc nitrate treatment, and the other group was sprayed with a zinc mixed ligand amino acid chelate treatment. The treatments were applied by a sprayer that sprays 535 gallons of liquid per acre.
Each tree was sprayed twice during the study, a first time at 90% petal drop and a second time 14 days later. The zinc nitrate was applied at 49 ounces per acre and the amino acid chelate at 66 ounces per acre. The amount of zinc applied to each group was equivalent.
Ten trees from each group were selected at random and the oranges picked from those trees by hand.

Test [4] relates to Golden Delicious apples. The test is described as follows: Golden Delicious apple foliar calcium study: bitterpit and culls. Type of test: in vivo, apple trees. The conditions noted are these: apples harvested and stored; 4 foliar applications, 14 day interval. As for the experimental part: A study was conducted with Golden Delicious apples. […] As a secondary aspect of this study, the leaves and fruit were analyzed to see if the source of calcium could affect calcium retention in the plant tissues.
(§2) A block of mature apple trees was divided into 4 sections.
(§3) The amino acids in the calcium chelate were glycine, valine, leucine, tryptophan, isoleucine, lysine, aspartic acid, alanine, and arginine. All treatments were made on the same day. The applications began with the first cover spray and continued from there every 14 days for 4 applications. The leaves were collected from a fruiting spur located at a 45 degree angle from the spray rig and into the tree canopy 3 feet. Samples were collected and sent for analysis. Apples were also collected on the same day from the same location as the leaves. They also were sent for analysis of the fruit flesh. The orchard was then harvested and placed in storage.
It is noted that absorption of calcium into the plant from a foliar spray is only part of what the plant needs. The calcium source must be able to be retained by the plant after absorption and then be translocated and enter into metabolic activities as needed.

Test [5] relates to Golden Delicious apples. Kind of test: Golden Delicious apple foliar calcium study: Ca analysis of leaves and fruit. Format: in vivo, apple trees. The conditions noted are these: 4 foliar applications, 14 day interval; for Apple Ca: apple fruit flesh; for Leaf Ca: apple leaves from fruiting spur. As for the experimental part: A study was conducted with Golden Delicious apples. Calcium is effective in reducing bitterpit in apples, and the present study was initially designed to determine which source of calcium, described below, had the greatest impact on reducing bitterpit. As a secondary aspect of this study, the leaves and fruit were analyzed to see if the source of calcium could affect calcium retention in the plant tissues.
as §2, §3

The mark [6] stands for this setting: 0 ppm N from urea and ammonium nitrate.
Setting [7] is: 500 ppm N from urea and ammonium nitrate.
Setting [8] is: 1000 ppm N urea and ammonium nitrate.

With `O=C([O-])CN(CCN(CC(=O)[O-])CC(=O)[O-])CC(=O)[O-].[Fe+3]` [Fe EDTA], the “Fe in Leaves” value in test [1] (setting [6]) was 47 ppm^a Fe ppm Fe; in test [1] (setting [7]), 56 ppm^a Fe ppm Fe; in test [1] (setting [8]), 69 ppm^a Fe ppm Fe. Also, the “Dry Matter” value in test [2] (setting [6]) is 14.12 g/pot; in test [2] (setting [7]), 15.08 g/pot; in test [2] (setting [8]) it was 11.24 g/pot.

As to `O=[N+]([O-])[O-].O=[N+]([O-])[O-].[Zn+2]` [Zn Nitrate, zinc nitrate], in test [3] (oranges, sprayed twice), the “% Acid” value stood at 1.05%, the “% Brix” value was 12.2% and the “% Juice” value was 57.2%. In addition, the Weight of oranges/tree in test [3] (sprayed twice (90% petal drop and 14 days later), ten trees per group) worked out at 95.11 lbs.

Regarding `[O]=[Ca]` [Ca Oxide, calcium oxide], in test [4], the “percent of bitterpit in the culls” value is 25% and the percent of culls is 34%. In addition, in test [5], the “Apple Ca” value is recorded as 148 ppm and the “Leaf Ca” value turned out to be 2.15%.

Take `[Ca+2].[Cl-].[Cl-]` [Ca Chloride, calcium chloride]: in test [4], the “percent of bitterpit in the culls” value is given as 26% and the percent of culls was 36%. Besides, in test [5], the “Apple Ca” value was 138 ppm and the “Leaf Ca” value amounted to 1.70%.

Regarding `O=[N+]([O-])[O-].O=[N+]([O-])[O-].[Ca+2]` [Ca Nitrate, calcium nitrate], in test [4], the “percent of bitterpit in the culls” value is listed as 20% and the percent of culls was 34%. Besides, in test [5], the “Apple Ca” value is recorded as 190 ppm and the “Leaf Ca” value worked out at 2.37%.

For the compound `O=S(=O)([O-])[O-].[Fe+2]` [FeSO4], the “Fe in Leaves” value in test [1] (setting [6]) was 48 ppm^a Fe ppm Fe; in test [1] (setting [7]), 53 ppm^a Fe ppm Fe; in test [1] (setting [8]), 63 ppm^a Fe ppm Fe. Moreover, the “Dry Matter” value in test [2] (setting [6]) stood at 13.23 g/pot; in test [2] (setting [7]) it was 15.73 g/pot; in test [2] (setting [8]), 14.82 g/pot.
